Source: PubChem BioAssay AID1996
Converted amounts (≈) assume the structure as drawn.

Conditions: buffer; pH 7.4; 200.0 µM

Row | Compound | solubility kinetic
1 | Cc1cc(S(=O)(=O)Cc2noc(-c3c(C)noc3C)n2)c(C)cc1Cl | < 0.3 µg/mL
2 | COc1ccc(NC(=S)Nc2ccccn2)cc1 | 2.8 µg/mL (≈ 10.8 µM)
3 | CN(C)c1ccc(-n2cccc2/C=C/[N+](=O)[O-])cc1 | < 0.2 µg/mL
4 | Cc1cc(C)cc(NC(=O)Nc2cccnc2)c1 | > 36.2 µg/mL
5 | Cc1ccc(OCCN2CCOCC2)cc1C | > 35.3 µg/mL
6 | Cc1ccnc2c1ccc1ccccc12 | < 0.4 µg/mL
7 | c1ccc(C2CC(c3ccccc3)C(c3ccccc3)N2)cc1 (centres undefined) | 8.4 µg/mL (≈ 28.1 µM)
8 | COc1ccc(/C=C/C(=O)NCCCN2CCOCC2)cc1 | 43.8 µg/mL (≈ 144 µM)
9 | CN1CCN(C(=O)CCc2nc(-c3ccc(Cl)cc3)no2)CC1 | > 50.2 µg/mL
10 | Cn1ccnc1SCC(=O)c1ccc(C#N)cc1 | > 38.6 µg/mL
11 | C=C(C)C(=O)OCC(=O)NCc1ccccc1 | 27.2 µg/mL (≈ 117 µM)
12 | O=C(O)c1ccc(/C=C/c2nc3ccccc3c(=O)[nH]2)cc1 | > 43.8 µg/mL
13 | Cc1cccc(NS(=O)(=O)c2ccc3oc(=O)ccc3c2)c1C | 44.8 µg/mL (≈ 136 µM)
14 | COc1ccccc1CNC(=O)CCN1C(=O)c2ccccc2C1=O | > 50.8 µg/mL
15 | O=c1[nH]c(Cc2ccccc2)nc2ccccc12 | 2.5 µg/mL (≈ 10.6 µM)
16 | O=S(=O)(/N=C/c1c(O)ccc2ccccc12)c1ccccc1 | > 46.7 µg/mL
17 | CCN1CCCC1CNC(=O)c1cc2ccc(OC)cc2[nH]1 (centres undefined) | > 45.2 µg/mL
18 | COc1ccc(-c2nc(N)ncc2-c2ccccc2)c(O)c1 | 0.9 µg/mL (≈ 3.07 µM)
19 | Cc1ccccc1-c1nc2cc(Cl)ccc2c(=O)o1 | < 0.6 µg/mL
20 | CN(C)CCCNc1oc(-c2ccc(Cl)cc2)nc1S(=O)(=O)c1ccccc1 | > 63 µg/mL
21 | Cc1ccc(Oc2ncccc2N)c2c1CCC2 | 10.1 µg/mL (≈ 42 µM)
22 | CCOc1cccc2cc(C(=O)NCc3ccccc3)c(=N)oc12 | 2.1 µg/mL (≈ 6.51 µM)
23 | CCC(=O)c1ccc(OC(C)C(=O)NC2(C#N)CCCCC2)cc1 (centres undefined) | 25 µg/mL (≈ 76.1 µM)
24 | COc1ccc(Nc2nccc(-c3ccc(C#N)cc3)n2)cc1 | 0.7 µg/mL (≈ 2.32 µM)

Row | Compound | solubility kinetic
25 | CN(Cc1ccccc1)S(=O)(=O)c1cccc2nsnc12 | 3 µg/mL (≈ 9.39 µM)
26 | S=C(c1ccc(-c2ccc(Br)cc2)o1)N1CCCCC1 | < 0.8 µg/mL
27 | COc1cccc(C(=O)N2CCCN(C)CC2)c1OC | 36.2 µg/mL (≈ 130 µM)
28 | CSCC[C@H](NC(=O)c1cccc(S(=O)(=O)N2CCCCCC2)c1)c1nc2ccccc2[nH]1 | 2.5 µg/mL (≈ 5.14 µM)
29 | COc1ccc(S(=O)(=O)N2CCOCC2)cc1NC(=O)CSc1nc(C)c(C)c(C)n1 | 8.5 µg/mL (≈ 18.2 µM)
30 | COc1ccc(OC)c(N=Cc2c(O)[nH]c(=O)[nH]c2=O)c1 | 7.1 µg/mL (≈ 24.4 µM)
31 | Cc1ccc(C(=O)N2CCN(Cc3ccccc3)CC2)o1 | > 42.7 µg/mL
32 | O=C(COC(=O)c1c[nH]c2ccccc12)Nc1ccccc1 | 1.9 µg/mL (≈ 6.46 µM)
33 | Cc1ccc(/C(N)=N/OC(=O)c2ccc3ccccc3c2)cc1 | 1 µg/mL (≈ 3.29 µM)
34 | O=C1c2ccccc2C(=O)N1OS(=O)(=O)c1ccc(F)cc1 | > 48.2 µg/mL
35 | CN(CC(=O)Nc1ccc(F)c(F)c1F)C(=O)c1ccc(=O)[nH]c1 | > 50.9 µg/mL
36 | CC(C)CCc1c(O)nc(SCC(C)C)[nH]c1=O | > 40.6 µg/mL
37 | COc1ccc(-c2csc(NC(=O)Cc3ccccc3)n2)cc1OC | 0.7 µg/mL (≈ 1.97 µM)
38 | CCN1CCN(C(=O)NC2CC(=O)N(c3ccc(OC)cc3)C2)CC1 (centres undefined) | > 52 µg/mL
39 | Cc1ccsc1C(=O)OCC(=O)N1CCN(c2ccccc2)CC1 | > 51.7 µg/mL
40 | C[C@H](NC(=O)N1CCn2c1nc1ccccc12)C(=O)NC1CC1 | > 47 µg/mL
41 | CC1CCCC(C)N1C(=O)CSc1nc(N)cc(N)n1 (centres undefined) | > 44.3 µg/mL
42 | O=C(NCCCN1CCCC1=O)Nc1ccc([N+](=O)[O-])cc1 | > 45.9 µg/mL
43 | NS(=O)(=O)c1ccc(CCNC(=O)CSCc2ccccc2)cc1 | 42.6 µg/mL (≈ 117 µM)
44 | Cc1ccc(C(=O)NC(C(=O)NC2CCCC2)c2ccccc2)cc1 (centres undefined) | 4.1 µg/mL (≈ 12.2 µM)
45 | O=c1c2sc3ccccc3c2[nH]c(=S)n1CCN1CCOCC1 | 49.9 µg/mL (≈ 144 µM)
46 | O=C(COC(=O)CNC(=O)c1ccc(F)cc1)NC1CCCc2ccccc21 (centres undefined) | > 57.7 µg/mL
47 | Cc1c(Cl)ccc(S(=O)(=O)NCCN2CCOCC2)c1Cl | > 53 µg/mL
48 | Cc1cccc(C(=O)NCCC(=O)NCc2ccccc2F)c1 | > 47.2 µg/mL

Row | Compound | solubility kinetic
49 | COc1ccc(Cl)cc1C(=O)n1cnc2ccccc21 | > 43 µg/mL
50 | Cl.O=C(NCCN1CCOCC1)c1ccccc1OCc1ccccc1 | > 56.5 µg/mL
51 | CC(=O)NC1C(=O)N(Cc2ccccc2)c2ccc(Br)cc21 (centres undefined) | 18 µg/mL (≈ 50.1 µM)
52 | CC(C)C(=O)Nc1ccc(NC(=O)CCc2ccccc2)cn1 | > 46.7 µg/mL
53 | COc1ccccc1C1CCN(Cc2cccc([N+](=O)[O-])c2)CC1 | 16.4 µg/mL (≈ 50.2 µM)
54 | COCCNC(=O)c1cccc(NC(=O)C2=C(C)OCCS2)c1 | > 50.5 µg/mL
55 | O=C(NCc1ccccc1Cl)c1cc2ccccc2oc1=O | < 0.7 µg/mL
56 | CC1(C)C2CCC1(C)C(OCCNCCOC(=O)Nc1ccccc1)C2 (centres undefined) | 10.2 µg/mL (≈ 28.3 µM)
57 | Cc1ccc(NC(=O)C(C)SCc2nc3sc4c(c3c(=O)[nH]2)CCCC4)nc1 (centres undefined) | 29.4 µg/mL (≈ 70.9 µM)
58 | O=C(COc1ccccc1[N+](=O)[O-])NCC1(N2CCOCC2)CCCCC1 | > 56.6 µg/mL
59 | O=C(NCCc1ccccc1)C(=O)NCC1CCNCC1 | > 43.4 µg/mL
60 | Nc1nc(C(F)(F)F)cc(=O)[nH]1 | 22.8 µg/mL (≈ 127 µM)
61 | CCCCN(C)Cc1cc(=O)oc2cc3c(cc12)CCCC3 | < 0.6 µg/mL
62 | COC(=O)c1ccc(-c2ncc[nH]2)cc1 | > 30.3 µg/mL
63 | COc1ccc(-n2c(C)cc(-c3cn4cccc(C)c4n3)c2C)cc1 | 11.9 µg/mL (≈ 35.9 µM)
64 | CC(C)c1ccc(NC(=O)CCCC(=O)NCCc2ccccc2)cc1 | 6 µg/mL (≈ 17 µM)
65 | C=C(C)C(=O)Nc1cccnc1Oc1ccc(F)cc1F | 40.8 µg/mL (≈ 141 µM)
66 | CC(=O)Nc1ccc(S(=O)(=O)NC(C)CCc2ccccc2)cc1 (centres undefined) | > 52 µg/mL
67 | CCCOc1ccccc1/C=C1\SC(N)=NC1=O | 2.1 µg/mL (≈ 8.01 µM)
68 | COc1ccc(CNc2ccc(Br)cc2)cc1 | < 0.6 µg/mL
69 | N#Cc1ccc(C(=O)OCC(=O)N2CCCC2)cc1 | > 38.7 µg/mL
70 | FC(F)(F)Oc1ccc(NC2=NCCCS2)cc1 | 41.4 µg/mL (≈ 150 µM)
71 | Cc1ccc(CNc2ccc(N3CCOCC3)c(Cl)c2)cc1 | 1.7 µg/mL (≈ 5.37 µM)
72 | N#Cc1ccccc1NC(=S)NC(=O)c1cccnc1 | 28.9 µg/mL (≈ 102 µM)

Row | Compound | solubility kinetic
73 | CCOC(=O)c1[nH]cnc1C(=O)Nc1ccccc1OC | 10.3 µg/mL (≈ 35.6 µM)
74 | O=C(NC1CCSC1)c1cccc(Cl)c1 (centres undefined) | > 36.3 µg/mL
75 | Cc1ccc(Cl)cc1NC(=O)CCC(=O)O | > 36.3 µg/mL
76 | CC[n+]1oc(-c2ccccc2)cc1C.F[B-](F)(F)F | 37.4 µg/mL
77 | Cc1ccc(C(=O)N/C(=C\c2cn(C)c3ccccc23)C(=O)OCCN(C)C)cc1 | 58.9 µg/mL (≈ 145 µM)
78 | CC(=O)c1cccc(NC(=O)CCn2c(=S)oc3ccccc32)c1 | 0.8 µg/mL (≈ 2.35 µM)
79 | CC(C)CNC(=O)COC(=O)c1ccc(F)cc1Cl | > 43.2 µg/mL
80 | CC1CCN(CC(=O)Nc2ccc3c(c2)OCO3)CC1 | > 41.5 µg/mL
81 | COc1ccccc1C(=O)Nc1cccc2c1CCCC2 | < 0.6 µg/mL
82 | CCSc1ncc(Cl)c(C(=O)Nc2ccccc2C)n1 | 0.5 µg/mL (≈ 1.62 µM)
83 | CC(=O)c1cn(CCOc2cc(C)ccc2C)c2ccccc12 | < 0.7 µg/mL
84 | CC(C)(CC(=O)O)CC(=O)N1CCN(c2nc3cc(Cl)ccc3s2)CC1 | > 59.4 µg/mL
85 | O=C(OCC(=O)N1CCc2ccccc21)[C@@H]1CC(O)CN1S(=O)(=O)c1ccccc1[N+](=O)[O-] (some centres undefined) | 20.4 µg/mL (≈ 42.9 µM)
86 | CC1CCN(S(=O)(=O)c2ccc(NC(=O)C3CC3)cc2)CC1 | 37.2 µg/mL (≈ 115 µM)
87 | O=c1cc[nH]c2ccc([N+](=O)[O-])cc12 | > 28.5 µg/mL
88 | O=C(Nc1ccc2[nH]ccc2c1)c1ccc(F)cc1 | > 38.1 µg/mL
89 | COC(=O)c1ccc2c(c1)NC(=O)c1ccccc1S2 | 3.9 µg/mL (≈ 13.7 µM)
90 | Cc1ccc(C(=O)Nc2ccc(F)c(S(=O)(=O)N3CCOCC3)c2)s1 | 5.3 µg/mL (≈ 13.8 µM)
91 | O=C1C2C3C=CC(CC3)C2C(=O)N1c1ccc(Cl)cc1Cl (centres undefined) | 9.7 µg/mL (≈ 30.1 µM)
92 | CCOC1(/N=C(\C)NS(=O)(=O)c2ccc(Cl)cc2)C(C)=CC(=O)C=C1C | > 59.5 µg/mL
93 | O=C(COC(=O)c1ccc(Cl)nc1)Nc1ccc2c(c1)OCO2 | > 50.2 µg/mL
94 | CCCNC(=O)Nc1cc(S(=O)(=O)CC)ccc1O | 37.9 µg/mL (≈ 132 µM)
95 | Cc1ccc(Cl)cc1NC(=O)C1CC1c1ccccc1 (centres undefined) | < 0.6 µg/mL
96 | COc1ccc(/C=C/C(=O)NC2CC3CCC2C3)cc1 (centres undefined) | 6.9 µg/mL (≈ 25.4 µM)

Row | Compound | solubility kinetic
97 | O=C(CNc1ccccc1)Nc1cccc2ccccc12 | 3.4 µg/mL (≈ 12.3 µM)
98 | COc1ccc(NC(=O)C23CC4CC(CC(Cl)(C4)C2)C3)cc1S(=O)(=O)N1CCOCC1 | 3.3 µg/mL (≈ 7.04 µM)
99 | O=C(COC(=O)/C=C/c1ccco1)Nc1ccccc1 | 13.5 µg/mL (≈ 49.8 µM)
100 | CCOc1ccc(NC(=O)CCN2C(=O)c3cccc([N+](=O)[O-])c3C2=O)cc1 | 16.4 µg/mL (≈ 42.8 µM)
101 | Cc1cccc(NC(=O)/C(C#N)=C/c2ccc[nH]2)c1C | 2.1 µg/mL (≈ 7.92 µM)
102 | CN1CCN(Cc2c(F)cccc2Cl)CC1 | 24.2 µg/mL (≈ 99.7 µM)
103 | CCCn1c2ccccc2c2cnn(CC(=O)O)c(=O)c21 | > 42.8 µg/mL
104 | COc1ccc(/C=C2\SC(N3CCCCC3)=NC2=O)cc1 | 1.3 µg/mL (≈ 4.3 µM)
105 | Cn1c(SCc2ccc([N+](=O)[O-])cc2)nc2c(c1=O)SCC2 | 1.6 µg/mL (≈ 4.77 µM)
106 | COc1ccc(NC(=O)COCC(=O)Nc2ccc(C)cc2)cc1 | 44.3 µg/mL (≈ 135 µM)
107 | N#Cc1c(N2CCCC2)ccc(Br)c1Cl | < 0.3 µg/mL
108 | O=C(Cc1cccc2ccccc12)Nc1ccc(N2CCOCC2)cc1 | 1.7 µg/mL (≈ 4.91 µM)
109 | Cc1cc(C)c(S(=O)(=O)c2ccc(Cl)cc2)c(=O)[nH]1 | 19.8 µg/mL (≈ 66.5 µM)
110 | COc1cc2c(cc1OC)CN(C(=O)c1oc3ccccc3c1C)CC2 | 27.2 µg/mL (≈ 77.4 µM)
111 | O=c1c2ccccc2nc(-c2ccccc2F)n1-c1ccccc1 | 45.5 µg/mL (≈ 144 µM)
112 | Cn1c(SCC#N)nc2ccccc2c1=O | 30.2 µg/mL (≈ 131 µM)
113 | CC(=O)Oc1ccc2c(=O)oc(-c3ccccc3C)nc2c1 | 8.4 µg/mL (≈ 28.4 µM)
114 | Cc1ccc(N=Cc2c(O)c3ccccc3oc2=O)cc1F | < 0.6 µg/mL
115 | COc1ccc(-c2cc(C(=O)Nc3ccccc3O)c3ccccc3n2)cc1 | < 0.4 µg/mL
116 | CC(=O)N1CCN(Cc2nc(-c3cccc(Cl)c3)no2)CC1 | > 48.1 µg/mL
117 | COc1ccccc1/C=C/C(=O)OCC(=O)Nc1ccc(Cl)cn1 | 1.1 µg/mL (≈ 3.17 µM)
118 | Cc1ccc(S(=O)(=O)N(OCc2ccccc2)C(C)C(=O)O)cc1 (centres undefined) | 52.1 µg/mL (≈ 149 µM)
119 | COc1ccc(Br)cc1CN(C)C(=O)C1CC(=O)N(C2CCCC2)C1 (centres undefined) | 54.2 µg/mL (≈ 132 µM)
